Source: PubChem BioAssay AID179 (DTP/NCI, 2004)
pEC50, pIC50: −log10 of the molar value. Values joined by “and” are separate entries in the source; they are usually repeats but may differ in a detail not shown here. Equal values may be shown once. Active and inactive are the calls of the source.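 How the source made its calls: active means compounds giving half or more protection of infected cells from virus-caused growth loss, again on retest; inactive means the rest.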 Where a SMILES comes first, the peptide text is derived from it. The star is where a group is joined. Cbz = O=C(OCc1ccccc1)*

Tested on: CEM cells HIV-1 protection, formazan growth assay
Assay: NCI AIDS Antiviral Assay
Settings: for pIC50: measured here: growth of uninfected CEM cells
How it was run: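 CEM (human) cells, HIV-1 infected vs uninfected, 5-point dosing, formazan growth read-out. Retest threshold 50% protection.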

SMILES	pEC50	pIC50	outcome
NC(CS)=NCCc1nc2ccccc2[nH]1	< 3.70	3.96	–
O=NN(CCCl)C(=O)NC1CCC(=O)NC1=O (centres undefined)	< 3.02	3.74	–
CCn1c(C)nn2c(=O)c3ccccc3nc2c1=O	< 4.00	< 4.00	–
CCCCCCCCCCCCCC(=O)O[C@H]1CC[C@H](NC(=O)[C@H](OC)[C@H](O)[C@@H](O)[C@H](O)/C=C/C(C)C)C(=O)NC1	< 5.70	8.18	–
O=c1c(-c2ccccc2)c(S)sc(S)c1-c1ccccc1	< 3.70	< 3.70	–
Nc1ncnc2c1ncn2C1COC(CO)C1CO (centres undefined)	4.06	< 3.70	–
O=C(OCCOCCOC(=O)c1c[nH]cc1-c1ccccc1)c1c[nH]cc1-c1ccccc1	–	–	inactive
CSc1ccc(/C=C2\CNC/C(=C\c3ccc(SC)cc3)C2=O)cc1	< 3.70	4.23	–
O=C(O)C[C@@H]1C(=O)OC2C3COC(=O)c4cc(O)c(O)c(O)c4-c4c(cc(O)c(O)c4O)C(=O)OC2C(OC(=O)c2cc(O)c(O)c4c2C1[C@H](O)C(=O)O4)C(OC(=O)c1cc(O)c(O)c(O)c1)O3 (some centres undefined)	5.58	4.89	–
O=C(CCc1ccc(O)c(O)c1)NCCc1ccccc1	< 3.70	4.66	–
NC(CCc1nc(-c2ccc(Cl)cc2)cs1)C(=O)O (centres undefined)	–	–	inactive
CCCCCCCCCCNCCSSc1ccccc1	< 3.70	5.37	–
CN(C)Cc1cc(C(=O)/C=C/c2c(Cl)cccc2Cl)cc(CN(C)C)c1O	< 3.70	5.57	–
O=C1CS(=O)(=O)C(c2cccc(F)c2)N1N1C(=O)CS(=O)(=O)C1c1cccc(F)c1 (centres undefined)	< 3.70	< 3.70	–
NC1=NS(=O)(=O)N=C(N)C1=NNc1ccccc1	< 3.03	3.85	–
O=[N+]([O-])c1ccc2cnn(C[N+]34CN5CN(CN(C5)C3)C4)c2c1	–	–	inactive
C=C(C)C1CCC(C(=O)O)CC1 (centres undefined)	< 3.70	< 3.70	–
N#CC1(Cc2ccccc2[N+](=O)[O-])c2ccccc2C2C(N1C(=O)c1ccccc1)C2(Cl)Cl (centres undefined)	–	–	inactive
O=[N+]([O-])c1ccc(S(=O)(=O)N/N=C/c2cccc3ccccc23)cc1	< 4.29	< 4.29	–
COc1ccc(/C=C\c2cc(OC)c(OC)c(OC)c2)cc1OP(=O)(O)O	< 4.45	7.55	–
CC1OC(OC2C(O)COC(OC3C(C)OC(OC4C(OC(=O)[C@]56CCC(C)(C)C[C@@H]5C5=CCC7[C@@]8(C)C[C@H](O)[C@H](OC9OC(CO)C(O)C(OC%10OC(CO)C(O)C(O)C%10O)C9O)[C@@](C)(CO)[C@@H]8CC[C@@]7(C)[C@]5(C)CC6)OCC(O)C4O)C(O)C3OC3OCC(O)(CO)C3O)C2O)C(O)C(O)C1O (some centres undefined)	< 4.72	4.91	–
CC1C2=C(CCCC2=O)N(c2ccc(Cl)cc2)C2=C1C(=O)CCC2	< 4.00	< 4.00	–

SMILES	pEC50	pIC50	outcome
O=[N+]([O-])c1nccn1CC(O)CF (centres undefined)	< 3.33	< 3.33	–
Cc1ccc(Oc2ccccc2N)cc1	–	–	inactive
CCOC(=O)C1=C(O)CSC1=Nc1ccccc1	–	–	inactive
CC1=CCCC2C1(C)CCC(C)C2(C)Cc1cc(O)ccc1O (centres undefined)	< 4.00	4.92	–
O=C1c2ccccc2C(=O)c2c1nc1sccn21	< 3.70	4.49	–
O=C(O)CCSSc1ccc([N+](=O)[O-])cc1[N+](=O)[O-]	< 3.70	4.80	–
COc1cc2c(cc1OC)CN1CCc3ccccc3CC1C2 (centres undefined)	< 3.70	4.83	–
Cc1ccc(S(=O)(=O)SCCCSS(=O)(=O)c2ccc(C)cc2)cc1	< 4.05	4.81	–
Cn1c(=O)[nH]c2c(c1=O)CCCS2	< 3.60	< 3.60	–
C[C@]12CCC(=O)C=C1CC[C@@H]1C2CC[C@]2(C)Nc3[nH]ncc3CC12 (some centres undefined)	–	–	inactive
CN(C)CC1CCCCCCCCCC(CN(C)C)C1=O (centres undefined)	< 5.23	< 5.23	–
COC(=O)C1(C(=O)OC)CC2=C(S(=O)(=O)c3ccccc3)C[C@H](C#N)[C@H]2C1	< 3.70	4.23	–
CSc1nc(NC2OC(CO)C(O)C(O)C2O)cc(=O)[nH]1 (centres undefined)	–	–	inactive
Cc1ccccc1S(=O)(=O)OC1NS(=O)(=O)c2ccccc21 (centres undefined)	< 3.70	< 3.70	–
CC(C)NCCNC(=O)c1ccccc1Nc1c(Cl)cccc1Cl	< 3.70	4.83	–
Cc1nc2ccccc2nc1CC(=O)C(=O)Nc1ccc(Cl)cc1Cl	3.52	3.46	–
CC(Cn1c2c(c3cc(O)ccc31)CCc1ccc(O)cc1-2)N(C)C (centres undefined)	< 3.70	4.92	–
CC1C(c2ccc(Cl)cc2)c2cc3c(cc2OC1N1CCOCC1)OCO3 (centres undefined)	< 4.00	4.67	–
Cc1ccc(NC(=O)CCc2n[nH]c(=S)o2)cc1	< 5.26	< 5.26	–
O=C(O)C1CCCCC1c1c2ccc(=O)c(O)c-2oc2c(O)c(O)ccc12 (centres undefined)	4.77	4.08	–
CC(/C(=N/NC(=O)C(N)=O)c1c(Cl)ccc(Cl)c1O)C1(O)C(=O)Nc2ccccc21 (centres undefined)	< 4.94	< 4.94	–
CCNC(=O)NNc1ncnc2c1c(-c1ccc(Cl)cc1)cn2-c1ccc(C)cc1	< 3.70	4.45	–

SMILES	pEC50	pIC50	outcome
N#CC1(Cc2ccccc2Cl)c2ccccc2C=CN1C(=O)c1ccccc1 (centres undefined)	–	–	inactive
COc1ccc(N=C2C(=Nc3ccc(OC)cc3)N(c3ccccc3)C(=S)N2N=C=C2Sc3ccccc3N2C)cc1	< 3.70	4.59	–
CC(NC(=O)/C(=C/c1ccccc1O)NC(=O)c1ccccc1)C(=O)O (centres undefined)	< 3.70	< 3.70	–
COC(=O)c1ccc[c]([Sb](=[O])([OH])[OH])c1	< 3.70	4.04	–
O=C(/C=C/c1ccc(O)c(O)c1O)OCCc1ccccc1	< 3.70	5.63	–
Cc1nc(C)c(N2CCN(C#N)CC2)c(=O)[nH]1	< 3.70	< 3.70	–
CC1(C)OC(=S)N(c2ccccc2)C12C=Cc1cc3ccccc3nc1S2 (centres undefined)	< 5.43	5.48	–
CN(C)C1=NC2=S(SC(Nc3ccccc3)=N2)S1 (centres undefined)	–	–	inactive
C#CCCCC(=C)C[C@@H]1OC(=O)[C@H](C)[C@@H]1O	< 3.70	< 3.70	–
S=C1CCCCCN1	< 2.71	2.99	–
CCCCCCSSCCCCCC	< 3.70	< 3.70	–
N#C/C(=C\c1ccc(O)c(O)c1)C(=O)NCCCCNC(=O)/C(C#N)=C/c1ccc(O)c(O)c1	< 3.70	4.62	–
COc1cc(/C=C(\C#N)C(=O)c2ccccc2)ccc1OCc1ccccc1	< 4.71	< 4.71	–
COc1cc2c(c3oc(=O)cc(-c4ccccc4)c13)C(=O)[C@H](C)[C@@H](C)O2	< 3.70	< 3.70	–
O=C1CCC2(CC1CCS(=O)c1ccccc1)OCCO2 (centres undefined)	< 3.70	< 3.70	–
O=C(O)C(Cc1ccccc1)NC(=O)C1CCCN1C(=O)OCc1ccccc1 (stereo not drawn) (Cbz-Pro-Phe-OH; configuration not given here)	< 3.20	< 3.20	–
CC(=O)NC(CCCCNC(=O)N(C)N=O)C(=O)NCc1ccccc1 (centres undefined)	< 3.16	3.85	–
COc1cc(NC=O)c2c(c1)SC(C)C(=O)N2 (centres undefined)	3.85	< 3.70	–
O=C(O)C1CC2C3CC(C(=O)O)C(C3)C2C1 (centres undefined)	< 3.70	< 3.70	–
COc1ccc(-c2cc3c(nn2)-c2ccccc2C3=O)cc1	< 4.00	< 4.00	–
Nc1[nH]c(=O)ncc1F	< 3.70	< 3.70	–
CC1=C2C(=O)[C@H]3[C@@H](CC=C4C[C@@H](O)CC[C@@]43C)[C@@H]2CC[C@]12O[C@@H]1C[C@H](C)CN[C@H]1[C@H]2C	< 3.70	< 5.61 and 3.99	–

SMILES	pEC50	pIC50	outcome
O=[N+]([O-])c1ccc(/C=C/c2c[n+]([O-])nc3ccccc23)cc1	< 3.70	< 3.70	–
CN(C)CC(C)(C)C(/C=C/c1ccccc1)=N\Nc1ccccc1	–	–	inactive
Oc1c(CN2CCOCC2)cc(N=Nc2ccccc2)c(O)c1CN1CCOCC1	< 4.00	< 4.00	–
Cc1ccc(NC(=O)CC2Sc3ccccc3NC2=O)c(C)c1 (centres undefined)	< 4.10	4.41	–
Cc1cc(S(=O)(=O)N2CCNC2=O)c(S)cc1Cl	4.05	3.60	–
COc1ccc(C(=O)CCN(C)C)cc1	< 3.70	4.44	–
CCOC(=O)C1C(c2ccc(Cl)cc2Cl)NC(c2ccc(C)cc2)C(C(=O)OC)S1(=O)=O (centres undefined)	< 4.84	< 4.84	–
CCc1nc2cc(F)ccc2[nH]c1=O	< 3.70	3.88	–
NC1=Nc2ncccc2C(=O)NN1	< 3.70	3.93	–
CCOC(=O)c1[nH]c2ccccc2c1C(=O)C[C@H](NC(=O)C(F)(F)F)C(=O)OC	< 3.70	< 3.70	–
CNP(=O)(NC)NC	< 3.70	< 3.70	–
CO/N=C(\C(=O)Nc1cncs1)c1csc(NC(c2ccccc2)(c2ccccc2)c2ccccc2)n1	< 3.70	< 3.70	–
Cc1ccc(-n2cc(-c3ccc(Cl)cc3)c3c(NNC(=S)NCc4ccccc4)ncnc32)cc1	< 3.70	5.12	–
Cc1cn(C2CC(O[Si](C)(C)C(C)(C)C)C(CN(O)C(N)=O)O2)c(=O)[nH]c1=O (centres undefined)	< 3.70	< 3.70	–
CN(C)c1nc2oc(-c3ccccc3)c(-c3ccccc3)c2c2nncn12	< 3.82	< 3.82	–
CCOC(=O)c1cn(C)nc1N/C(C)=C\C(=O)c1ccccc1	< 3.70	4.12	–
CCCC/C(CC)=N/NS(=O)(=O)c1ccc(NC(C)=O)cc1	< 3.40	3.54	–
O=C1NC(N2CCOCC2)=N/C1=C\c1ccco1	< 3.70	< 3.70	–
COc1cccc(NC(=O)CC(=O)Nc2cccc(OC)c2)c1	< 3.70	< 3.70	–
COC1CCC(OS(C)(=O)=O)C(CO)O1 (centres undefined)	–	–	inactive
O=C(/C=C/C(=O)N/N=C/c1cc(S(=O)(=O)O)c2cccnc2c1O)N/N=C/c1cc(S(=O)(=O)O)c2cccnc2c1O	3.75	< 3.70	–
COC(=O)C1=C(c2ccccc2)C(O)(c2ccccc2)C(C(=O)OC)C1=O (centres undefined)	< 3.47	3.68	–
